Ki, melting point and IC50 data for 36 molecules are collected here from patent US7645752B2, “Sulfonyl substituted 1H-indoles as ligands for the 5-hydroxytryptamine receptors” (Wyeth LLC, priority 2006, dated 2010).

As usually defined, the Ki is the equilibrium dissociation constant of an inhibitor or competing ligand from its target. In general, melting point refers to the temperature, or range, at which the solid turns liquid. Broadly, the IC50 is the concentration at which inhibition is half-maximal.

Molecules are shown by their SMILES. Structures can show the parent of a compound that is named as a salt.

For the first data set, the target named is T1, human cloned 5-HT6 receptors (Homo sapiens, UniProt P50406).
T1 construct: expressed in transfected cells; host or cells: HeLa cells
T1 sequence (P50406 whole entry): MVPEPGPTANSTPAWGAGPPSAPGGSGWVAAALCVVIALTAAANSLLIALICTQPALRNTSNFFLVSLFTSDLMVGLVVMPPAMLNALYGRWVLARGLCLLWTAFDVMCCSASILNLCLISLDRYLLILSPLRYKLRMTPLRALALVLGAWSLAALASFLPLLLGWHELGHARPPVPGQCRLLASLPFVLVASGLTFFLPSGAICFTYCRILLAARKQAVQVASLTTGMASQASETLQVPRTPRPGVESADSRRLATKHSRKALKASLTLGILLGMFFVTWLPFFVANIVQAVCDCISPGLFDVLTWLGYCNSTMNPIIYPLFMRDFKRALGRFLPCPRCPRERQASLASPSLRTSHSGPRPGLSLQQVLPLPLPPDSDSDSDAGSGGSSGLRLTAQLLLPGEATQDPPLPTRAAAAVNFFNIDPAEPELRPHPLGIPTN
Kind of data set: 5-HT6 binding affinity, [3H]-LSD displacement on membranes of Hela cells.
Conditions: not given
The method in brief:
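Filter-bound radioactivity counted by scintillation. Binding at varying test-compound concentrations expressed as percent of specific binding without compound and plotted log % bound versus log concentration.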
Take `CNCCc1ccc2[nH]c(C)c(S(=O)(=O)c3ccccc3)c2c1` [Example 15, N-methyl-N-{2-[2-methyl-3-(phenylsulfonyl)-1H-indol-5-yl]ethyl}amine]: the Ki stood at 44 nM.

In turn, `CCc1[nH]c2ccc(CCNC)cc2c1S(=O)(=O)c1ccccc1` [Example 16, N-{2-[2-ethyl-3-(phenylsulfonyl)-1H-indol-5-yl]ethyl}-N-methylamine] gave a Ki of 29 nM.

Staying with this data set, now noted: Table 1; [3H]-LSD 3.0 nM, Hela cell membranes; read-out: Ki (nM) @ 5-HT6 receptor.
Turning to `CNCCc1ccc2[nH]cc(S(=O)(=O)c3ccccc3)c2c1` [Example 14, N-methyl-N-{2-[3-(phenylsulfonyl)-1H-indol-5-yl]ethyl}amine], the Ki came out at 5.2 nM. On the same count and under the same terms, the same measure for `CNCCc1ccc2[nH]c(-c3ccccc3)c(S(=O)(=O)c3ccccc3)c2c1` [Example 17, N-methyl-N-{2-[2-phenyl-3-(phenylsulfonyl)-1H-indol-5-yl]ethyl}amine]: 355 nM.

Test system in a further data set: not given
Assay: not given
Conditions: not given
In the case of `CCN(C)CCc1cccc2c(S(=O)(=O)c3ccccc3)c[nH]c12` (as salt: hydrochloride) [Example 24, N-ethyl-N-methyl-N-{2-[3-(phenylsulfonyl)-1H-indol-7-yl]ethyl}amine], the melting point was 215 to 218 °C (dec.). The same measure, in the same setting: the same measure for `CCN(CC)CCc1cccc2c(S(=O)(=O)c3ccccc3)c[nH]c12` (as salt: hydrochloride) [Example 25, N,N-diethyl-N-{2-[3-(phenylsulfonyl)-1H-indol-7-yl]ethyl}amine]: 165 to 166 °C (dec.). Same read-out and setting: the same measure for `O=S(=O)(c1ccccc1)c1c[nH]c2c(CCN3CCCC3)cccc12` (as salt: hydrochloride) [Example 26, 3-(phenylsulfonyl)-7-(2-pyrrolidin-1-ylethyl)-1H-indole]: 250 to 252 °C (dec.). The same measure, in the same setting: the result for `O=S(=O)(c1ccccc1)c1c[nH]c2c(CCN3CCCCC3)cccc12` (as salt: hydrochloride) [Example 27, 3-(phenylsulfonyl)-7-(2-piperidin-1-ylethyl)-1H-indole] reads 231 to 233 °C.

As for `O=S(=O)(c1ccccc1)c1c[nH]c2c(CCN3CCOCC3)cccc12` (as salt: hydrochloride) [Example 28, 7-(2-morpholin-4-ylethyl)-3-(phenylsulfonyl)-1H-indole], the melting point is 246 to 248 °C (dec.). Still for that read-out and setting: the result for `O=S(=O)(c1ccccc1)c1c[nH]c2c(CCN3CCNCC3)cccc12` (as salt: hydrochloride) [Example 30, 3-(phenylsulfonyl)-7-(2-piperazin-1-ylethyl)-1H-indole] reads 190 °C; that for `CN(C)CCc1cccc2[nH]cc(S(=O)(=O)c3ccccc3)c12` (as salt: hydrochloride) [Example 31, N,N-dimethyl-N-{2-[3-(phenylsulfonyl)-1H-indol-4-yl]ethyl}amine], 122 to 126 °C. Same read-out and setting: the same measure for `CNCCc1cccc2[nH]cc(S(=O)(=O)c3ccccc3)c12` (as salt: hydrochloride) [Example 32, N-methyl-N-{2-[3-(phenylsulfonyl)-1H-indol-4-yl]ethyl}amine]: 168 to 170 °C; for `CCNCCc1cccc2[nH]cc(S(=O)(=O)c3ccccc3)c12` (as salt: hydrochloride) [Example 33, N-ethyl-N-{2-[3-(phenylsulfonyl)-1H-indol-4-yl]ethyl}amine]: 225 to 228 °C; for `CCCNCCc1cccc2[nH]cc(S(=O)(=O)c3ccccc3)c12` (as salt: hydrochloride) [Example 34, N-{2-[3-(phenylsulfonyl)-1H-indol-4-yl]ethyl}-N-propylamine]: 217 °C. Molecule `CC(C)NCCc1cccc2[nH]cc(S(=O)(=O)c3ccccc3)c12` (as salt: hydrochloride) [Example 35, N-{2-[3-(phenylsulfonyl)-1H-indol-4-yl]ethyl}propan-2-amine] registered a melting point of 185 to 187 °C. Same read-out and setting: the same measure for `O=S(=O)(c1ccccc1)c1c[nH]c2cccc(CCNC3CC3)c12` (as salt: hydrochloride) [Example 36, N-{2-[3-(phenylsulfonyl)-1H-indol-4-yl]ethyl}cyclopropanamine]: 145 to 150 °C; for `O=S(=O)(c1ccccc1)c1c[nH]c2cccc(CCNC3CCC3)c12` (as salt: hydrochloride) [Example 37, N-{2-[3-(phenylsulfonyl)-1H-indol-4-yl]ethyl}cyclobutanamine]: 95 to 103 °C.

In the case of `O=S(=O)(c1ccccc1)c1c[nH]c2cccc(CCNC3CCCCC3)c12` (as salt: hydrochloride) [Example 39, N-{2-[3-(phenylsulfonyl)-1H-indol-4-yl]ethyl}cyclohexanamine], the melting point was 241 °C.

`CCN(C)CCc1cccc2[nH]cc(S(=O)(=O)c3ccccc3)c12` (as salt: hydrochloride) [Example 40, N-ethyl-N-methyl-N-{2-[3-(phenylsulfonyl)-1H-indol-4-yl]ethyl}amine] showed a melting point of 92 to 98 °C. Same read-out and setting: the same measure for `CN(CCc1cccc2[nH]cc(S(=O)(=O)c3ccccc3)c12)C1CCCCC1` (as salt: hydrochloride) [Example 41, N-cyclohexyl-N-methyl-N-{2-[3-(phenylsulfonyl)-1H-indol-4-yl]ethyl}amine]: 132 to 140 °C. `CCN(CC)CCc1cccc2[nH]cc(S(=O)(=O)c3ccccc3)c12` (as salt: hydrochloride) [Example 42, N,N-diethyl-N-{2-[3-(phenylsulfonyl)-1H-indol-4-yl]ethyl}amine] returned a melting point of 77 to 83 °C. Regarding `O=S(=O)(c1ccccc1)c1c[nH]c2cccc(CCN3CCCC3)c12` (as salt: hydrochloride) [Example 43, 3-(phenylsulfonyl)-4-(2-pyrrolidin-1-ylethyl)-1H-indole], the melting point lay in the range of 145 to 150 °C. On the same count and under the same terms, the result for `O=S(=O)(c1ccccc1)c1c[nH]c2cccc(CCN3CCCCC3)c12` (as salt: hydrochloride) [Example 44, 3-(phenylsulfonyl)-4-(2-piperidin-1-ylethyl)-1H-indole] reads 200 to 205 °C; that for `O=S(=O)(c1ccccc1)c1c[nH]c2cccc(CCN3CCOCC3)c12` (as salt: hydrochloride) [Example 45, 4-(2-morpholin-4-ylethyl)-3-(phenylsulfonyl)-1H-indole], 164 to 165 °C; that for `CC(NCCc1cccc2[nH]cc(S(=O)(=O)c3ccccc3)c12)C(C)(C)C` (stereo not shown) (as salt: hydrochloride) [Example 46, N-{2-[3-(phenylsulfonyl)-1H-indol-4-yl]ethyl}-N-(1,2,2-trimethylpropyl)amine], 275 °C.

`O=S(=O)(c1ccccc1)c1c[nH]c2cccc(CCNCc3ccccc3)c12` (as salt: hydrochloride) [Example 47, N-benzyl-N-{2-[3-(phenylsulfonyl)-1H-indol-4-yl]ethyl}amine] had a melting point of 172 °C. Same read-out and setting: the same measure for `CC(C)CNCCc1cccc2[nH]cc(S(=O)(=O)c3ccccc3)c12` (as salt: hydrochloride) [Example 48, N-isobutyl-N-{2-[3-(phenylsulfonyl)-1H-indol-4-yl]ethyl}amine]: 220 °C; for `CC(C)(C)CNCCc1cccc2[nH]cc(S(=O)(=O)c3ccccc3)c12` (as salt: hydrochloride) [Example 49, N-(2,2-dimethylpropyl)-N-{2-[3-(phenylsulfonyl)-1H-indol-4-yl]ethyl}amine]: 135 °C.

Regarding `O=S(=O)(c1ccccc1)c1c[nH]c2cccc(CCNCC3CCCO3)c12` (stereo not shown) (as salt: hydrochloride) [Example 51, N-{2-[3-(phenylsulfonyl)-1H-indol-4-yl]ethyl}-N-((tetrahydrofur-2-yl)methyl)amine], the melting point was in the range of 110 to 115 °C.

`NCCc1cccc2[nH]cc(S(=O)(=O)c3ccccc3)c12` (as salt: hydrochloride) [Example 61, {2-[3-(phenylsulfonyl)-1H-indol-4-yl]ethyl}amine] gave a melting point of 130 to 134 °C. Consider `NCCc1cccc2[nH]cc(S(=O)(=O)c3cccc(F)c3)c12` (as salt: hydrochloride) [Example 85, {2-[3-(3-fluorophenylsulfonyl)-1H-indol-4-yl]ethyl}amine], for which the melting point fell in the range of 122 to 125 °C. Take `CN(C)CCc1ccc2c(S(=O)(=O)c3ccccc3)c[nH]c2c1` (as salt: hydrochloride) [Example 86, N,N-dimethyl-N-{2-[3-(phenylsulfonyl)-1H-indol-6-yl]ethyl}amine]: the melting point fell in the range of 118 to 120 °C. Same read-out and setting: the same measure for `NCCc1ccc2c(S(=O)(=O)c3ccccc3)c[nH]c2c1` (as salt: hydrochloride) [Example 109, {2-[3-(phenylsulfonyl)-1H-indol-6-yl]ethyl}amine]: 178 °C; for `CNCCc1ccc2[nH]cc(S(=O)(=O)c3ccccc3)c2c1` [Example 14, N-methyl-N-{2-[3-(phenylsulfonyl)-1H-indol-5-yl]ethyl}amine]: 151 to 154 °C; for `CNCCc1ccc2[nH]c(C)c(S(=O)(=O)c3ccccc3)c2c1` [Example 15, N-methyl-N-{2-[2-methyl-3-(phenylsulfonyl)-1H-indol-5-yl]ethyl}amine]: 213 to 215 °C. On the same count and under the same terms, the same measure for `CCc1[nH]c2ccc(CCNC)cc2c1S(=O)(=O)c1ccccc1` [Example 16, N-{2-[2-ethyl-3-(phenylsulfonyl)-1H-indol-5-yl]ethyl}-N-methylamine]: 179 to 182 °C; for `CNCCc1ccc2[nH]c(-c3ccccc3)c(S(=O)(=O)c3ccccc3)c2c1` [Example 17, N-methyl-N-{2-[2-phenyl-3-(phenylsulfonyl)-1H-indol-5-yl]ethyl}amine]: 180 to 185 °C.

For the next data set, the target named is human 5-HT2A receptor (Homo sapiens, UniProt P28223). Nature of the data set: 5-HT2A FLIPR assay, antagonism of DOI calcium response in CHO cells.
Sequence of human 5-HT2A receptor (P28223 whole entry): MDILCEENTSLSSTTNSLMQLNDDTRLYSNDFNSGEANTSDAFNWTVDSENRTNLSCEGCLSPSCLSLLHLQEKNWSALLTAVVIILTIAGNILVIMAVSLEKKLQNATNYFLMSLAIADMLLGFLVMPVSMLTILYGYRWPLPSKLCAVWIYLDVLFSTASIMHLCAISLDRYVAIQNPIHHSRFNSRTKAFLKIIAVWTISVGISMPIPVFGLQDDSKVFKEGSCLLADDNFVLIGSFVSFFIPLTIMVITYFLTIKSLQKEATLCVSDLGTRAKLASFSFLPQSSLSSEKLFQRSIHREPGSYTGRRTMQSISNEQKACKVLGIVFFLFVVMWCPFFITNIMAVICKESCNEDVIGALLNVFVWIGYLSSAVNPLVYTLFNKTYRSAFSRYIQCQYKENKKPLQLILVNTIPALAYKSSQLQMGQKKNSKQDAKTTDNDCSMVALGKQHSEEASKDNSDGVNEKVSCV
Conditions: not given
Consider `CC1CCCCN1CCc1cccc2[nH]cc(S(=O)(=O)c3ccccc3)c12` (stereo not shown) [Example 56, 4-[2-(2-methylpiperidin-1-yl)ethyl]-3-(phenylsulfonyl)-1H-indole], for which the IC50 was determined as 73 nM. As to `CC1CCCN(CCc2cccc3[nH]cc(S(=O)(=O)c4ccccc4)c23)C1` (stereo not shown) [Example 57, 4-[2-(3-methylpiperidin-1-yl)ethyl]-3-(phenylsulfonyl)-1H-indole], the IC50 amounted to 72 nM.

Turning to `O=S(=O)(c1ccccc1)c1c[nH]c2cccc(CCN3CCCCCC3)c12` [Example 58, 4-(2-azepan-1-ylethyl)-3-(phenylsulfonyl)-1H-indole], the IC50 turned out to be 90 nM.
